Data taken from patent US9708336B2, “Metallo-beta-lactamase inhibitors” (priority 2014, dated 2017).
Like-named read-outs stand apart in the source and are kept apart here.

Tests used:
IMP-1 = IMP-1 (Serratia marcescens, UniProt P52699); assay: biochemical; assay type: biochemical; conditions: IMP-1 enzyme, CCF2-FA fluorescence assay; read-out: IMP-1 IC50
[1] = test system: Escherichia coli expressing NDM-1 (CLB30005); assay: Antibiotic potentiation activity: synergistic concentration (MITC95) with imipenem, OD600 growth; assay type: cell-based; conditions: Escherichia coli expressing NDM-1 (CLB30005), 95% growth inhibition
Summary of the method: (§1)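 Each strain, suspended in saline from overnight colonies and diluted 1:100 into 1.1× CAMHB, is dosed with imipenem at 4 μg/ml (or 1 μg/ml) plus compound, incubated 22–24 h at 35 °C and read by absorbance.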

[2] = test system: Serratia marcescens expressing IMP-1 (CL5741); assay: as above; assay type: cell-based; conditions: Serratia marcescens expressing IMP-1 (CL5741), 95% growth inhibition
Summary of the method: as §1

[3] = test system: Klebsiella pneumoniae expressing VIM-1 (IHMA599644); assay: as above; assay type: cell-based; conditions: Klebsiella pneumoniae expressing VIM-1 (IHMA599644), 95% growth inhibition
Summary of the method: as §1

NDM-1 = NDM-1 (Klebsiella pneumoniae, UniProt C7C422); assay: biochemical; assay type: biochemical; conditions: NDM-1 enzyme, CCF2-FA fluorescence assay; read-out: NDM-1 IC50
VIM-1 = VIM-1 (Pseudomonas aeruginosa (strain ATCC 15692 / DSM 22644 / CIP 104116 / JCM 14847 / LMG 12228 / 1C / PRS 101 / PAO1), UniProt A0A0F7KYQ8); assay: Enzyme activity: determination of IC50, fluorescence assay with CCF2-FA substrate (VIM-1); assay type: biochemical; conditions: CCF2-FA fluorescence assay
[4] = test system: Escherichia coli expressing NDM-1 (CLB30016); assay: Antibiotic potentiation activity: synergistic concentration (MITC95) with imipenem, OD600 growth; assay type: cell-based; conditions: Escherichia coli expressing NDM-1 (CLB30016), 95% growth inhibition
Summary of the method: as §1

[5] = VIM-1 enzyme, read-out: VIM-1 IC50

Chain of NDM-1 (C7C422 whole entry, looked up, species assumed): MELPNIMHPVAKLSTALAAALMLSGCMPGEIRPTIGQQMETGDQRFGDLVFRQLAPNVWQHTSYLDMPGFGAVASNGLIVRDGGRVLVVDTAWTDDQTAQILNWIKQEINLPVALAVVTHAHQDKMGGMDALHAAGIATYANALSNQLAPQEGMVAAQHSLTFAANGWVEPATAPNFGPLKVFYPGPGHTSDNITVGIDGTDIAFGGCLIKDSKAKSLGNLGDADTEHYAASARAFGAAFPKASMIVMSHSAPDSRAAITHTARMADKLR
Chain of IMP-1 (P52699 whole entry, looked up): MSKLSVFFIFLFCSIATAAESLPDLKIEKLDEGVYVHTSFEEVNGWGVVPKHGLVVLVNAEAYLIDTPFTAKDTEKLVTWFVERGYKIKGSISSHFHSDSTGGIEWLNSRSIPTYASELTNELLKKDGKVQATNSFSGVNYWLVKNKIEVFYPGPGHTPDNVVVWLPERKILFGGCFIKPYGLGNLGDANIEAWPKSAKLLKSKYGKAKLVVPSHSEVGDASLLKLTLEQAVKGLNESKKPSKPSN

SMILES	IC50 (IMP-1)	Escherichia coli MITC95 [1]	Serratia marcescens MITC95 [2]	Klebsiella pneumoniae MITC95 [3]	IC50 (NDM-1)	IC50 (VIM-1; [5])	IC50 (VIM-1; VIM-1 IC50, VIM-1 enzyme)	Escherichia coli MITC95 [4]
NCCc1ccc(-c2cccc(S(N)(=O)=O)c2-c2nnn[nH]2)cc1 [Example 300, 4′-(2-aminoethyl)-2-(1H-tetrazol-5-yl)-[1,1′-biphenyl]-3-sulfonamide]	373 nM	1.172 µM	12.5 µM	9.375 µM	37.2 nM	31.5 nM	–	–
Nc1ncc(-c2cccc(S(N)(=O)=O)c2-c2nnn[nH]2)cn1 [Example 301, 3-(2-aminopyrimidin-5-yl)-2-(1H-tetrazol-5-yl)benzenesulfonamide]	1380 nM	0.7813 µM	37.5 µM	25 µM	8.2 nM	282 nM	–	–
CCCc1ccc(-c2cccc(S(N)(=O)=O)c2-c2nnn[nH]2)cn1 [Example 302, 3-(6-propylpyridin-3-yl)-2-(1H-tetrazol-5-yl)benzenesulfonamide]	110 nM	0.3906 µM	3.906 µM	150 µM	5.85 nM	38.5 nM	–	–
NC(=O)Cc1ccc(-c2cccc(S(N)(=O)=O)c2-c2nnn[nH]2)cc1 [Example 303, 2-(3′-sulfamoyl-2′-(1H-tetrazol-5-yl)-[1,1′-biphenyl]-4-yl)acetamide]	59 nM	0.9766 µM	2.344 µM	18.75 µM	5.06 nM	44.6 nM	–	–
Cc1nc2ccccc2n1Cc1ccc(-c2cccc(S(N)(=O)=O)c2-c2nnn[nH]2)cc1 [Example 304, 4′-((2-methyl-1H-benzo[d]imidazol-1-yl)methyl)-2-(1H-tetrazol-5-yl)-[1,1′-biphenyl]-3-sulfonamide]	50.3 nM	6.25 µM	7.031 µM	>200 µM	29.2 nM	103 nM	–	–
NCCCc1ccc(-c2cccc(S(N)(=O)=O)c2-c2nnn[nH]2)cc1 [Example 305, 4′-(3-aminopropyl)-2-(1H-tetrazol-5-yl)-[1,1′-biphenyl]-3-sulfonamide]	333 nM	1.953 µM	4.688 µM	18.75 µM	50.2 nM	–	103 nM	–
NCc1ccc(-c2cccc(S(N)(=O)=O)c2-c2nnn[nH]2)cn1 [Example 306, 3-(6-(aminomethyl)pyridin-3-yl)-2-(1H-tetrazol-5-yl)benzenesulfonamide]	3740 nM	1.172 µM	50 µM	25 µM	104 nM	300 nM	–	–
NCCc1ccc(-c2cccc(S(N)(=O)=O)c2-c2nnn[nH]2)cn1 [Example 307, 3-(6-(2-aminoethyl)pyridin-3-yl)-2-(1H-tetrazol-5-yl)benzenesulfonamide]	4890 nM	1.172 µM	50 µM	12.5 µM	174 nM	96.2 nM	–	–
N#Cc1ccc(-c2cccc(S(N)(=O)=O)c2-c2nnn[nH]2)cc1 [Example 308, 4′-cyano-2-(1H-tetrazol-5-yl)-[1,1′-biphenyl]-3-sulfonamide]	192 nM	2.344 µM	9.375 µM	75 µM	11.3 nM	–	164 nM	–
NS(=O)(=O)c1cccc(-c2cnc3[nH]ncc3c2)c1-c1nn[nH]n1 [Example 309, 3-(1H-pyrazolo[3,4-b]pyridin-5-yl)-2-(2H-tetrazol-5-yl)benzenesulfonamide]	326 nM	0.3906 µM	8.333 µM	5.729 µM	1.35 nM	–	–	0.7813 µM
Nc1ncc(-c2cccc(S(N)(=O)=O)c2-c2nn[nH]n2)cc1F [Example 314, 3-(6-amino-5-fluoropyridin-3-yl)-2-(2H-tetrazol-5-yl)benzenesulfonamide]	292 nM	0.1953 µM	5.469 µM	3.906 µM	3.65 nM	–	–	0.3906 µM
NS(=O)(=O)c1cccc(-c2ccc(C3(O)CNC3)cc2)c1-c1nn[nH]n1 [Example 315, 4′-(3-hydroxyazetidin-3-yl)-2-(2H-tetrazol-5-yl)-[1,1′-biphenyl]-3-sulfonamide]	510 nM	0.3906 µM	4.688 µM	3.125 µM	11.6 nM	–	33.4 nM	–
NS(=O)(=O)c1cccc(-c2cnc(N3CCNCC3)nc2)c1-c1nn[nH]n1 [Example 320, 3-(2-(Piperazin-1-yl)pyrimidin-5-yl)-2-(2H-tetrazol-5-yl)benzenesulfonamide]	294 nM	0.6836 µM	9.375 µM	6.25 µM	14.4 nM	–	35.9 nM	–
NS(=O)(=O)c1cccc(-c2ccc(C(O)CO)cc2)c1-c1nn[nH]n1 (stereo not drawn) [Example 321, 4′-(1,2-dihydroxyethyl)-2-(2H-tetrazol-5-yl)-[1,1′-biphenyl]-3-sulfonamide]	93.5 nM	1.563 µM	6.25 µM	50 µM	19.2 nM	–	199 nM	–
NS(=O)(=O)c1cccc(-c2ccc(N3CCCCC3)nc2)c1-c1nn[nH]n1 [Example 322, 3-(6-(piperidin-1-yl)pyridin-3-yl)-2-(2H-tetrazol-5-yl)benzenesulfonamide]	321 nM	7.813 µM	25 µM	200 µM	36.5 nM	3650 nM	–	–
NS(=O)(=O)c1cccc(-c2ccc(N3CCOCC3)nc2)c1-c1nn[nH]n1 [Example 323, 3-(6-morpholinopyridin-3-yl)-2-(2H-tetrazol-5-yl)benzenesulfonamide]	70.6 nM	2.344 µM	12.5 µM	200 µM	7.69 nM	151 nM	–	–
NS(=O)(=O)c1cccc(-c2ccc(N3CCNCC3)nc2)c1-c1nn[nH]n1 [Example 324, 3-(6-(piperazin-1-yl)pyridin-3-yl)-2-(2H-tetrazol-5-yl)benzenesulfonamide]	1020 nM	13.28 µM	32.81 µM	37.5 µM	105 nM	404 nM	–	–
Cc1ccccc1-c1cccc(S(N)(=O)=O)c1-c1nn[nH]n1 [Example 325, 2′-methyl-2-(2H-tetrazol-5-yl)-[1,1′-biphenyl]-3-sulfonamide]	228 nM	3.125 µM	25 µM	37.5 µM	1.3 nM	13.1 nM	–	–
NS(=O)(=O)c1cccc(-c2ccccc2O)c1-c1nn[nH]n1 [Example 326, 2′-hydroxy-2-(2H-tetrazol-5-yl)-[1,1′-biphenyl]-3-sulfonamide]	370 nM	3.32 µM	18.75 µM	37.5 µM	3.65 nM	136 nM	–	–
CN(C)Cc1ccc(-c2cccc(S(N)(=O)=O)c2-c2nnn[nH]2)cc1 [Example 327, 4′-((Dimethylamino)methyl)-2-(1H-tetrazol-5-yl)-[1,1′-biphenyl]-3-sulfonamide]	534 nM	0.7813 µM	12.5 µM	100 µM	37.7 nM	–	216 nM	–
CCOCc1ccc(-c2cccc(S(N)(=O)=O)c2-c2nnn[nH]2)cc1 [Example 397, 4′-(Ethoxymethyl)-2-(1H-tetrazol-5-yl)-[1,1′-biphenyl]-3-sulfonamide]	37.3 nM	3.906 µM	9.375 µM	>200 µM	3.93 nM	–	246 nM	–
Cc1ccc(-c2cccc(S(N)(=O)=O)c2-c2nnn[nH]2)nc1 [Example 398, 3-(5-Methylpyridin-2-yl)-2-(1H-tetrazol-5-yl)benzenesulfonamide]	1210 nM	1.563 µM	50 µM	100 µM	43 nM	312 nM	–	–
